For 25 compounds, EC50 results are on record in patent US20240083903A1, “ARYL ETHER COMPOUNDS AS TEAD MODULATORS” (Merck Sharp& Dohme LLC, priority 2021, published 2024).

One experiment concerns TEAD Reporter-MCF7 cell line. In words: YAP/TEAD cellular activity assay: inhibition of TEAD-Luc activity in TEAD Reporter-MCF7 cell line. The format is cell-based, human. Conditions: Homo sapiens, MCF7, 24 h, TEAD Reporter-MCF7 cells, 24 hours incubation with compound, luciferase readout. As for the experimental part: YAP/TEAD Cellular Activity Assay
Quantitation of Compound Potency on the Inhibition of TEAD-Luc Activity in TEAD Reporter-MCF7 Cell Line.
The TEAD Reporter-MCF7 cell line containing the firefly luciferase gene under the control of TEAD responsive elements stably integrated into the human breast cancer cell line was purchased from BPS Bioscience (Cat #60618). The cells were cultured with complete culture medium ([…], 1 mM sodium pyruvate, 10% fetal bovine serum, 10 ng/mL insulin and 400 ug/mL G418 sulfate) prior to the assay. For the assay, the cells were harvested, resuspended in the complete culture medium without G418, and seeded into white solid bottom 384-well cell culture microplates in 25 uL with 10,000 cells per well. The plates were incubated at 37° C. in a CO2 incubator for 20-24 hours and the compounds were then transferred from Echo LDV plates directly into the 384-well white tissue culture plates with an Echo. The plates were incubated at 37° C. in a CO2 incubator for 24 hours and equal volume of ONE-Glo™ EX Luciferase reagent (Promega, Cat #E8150) was added. After mixing on a shaker at room temperature for 10 minutes, the luciferase activity was measured with an Envision. The percentage inhibition and EC50 values of compounds were calculated with Spotfire.
Required Materials • 1. TEAD reporter-MCF-7 Cells (BPS Bioscience, #60618) • 2. Complete Cell Culture Medium (without selection antibiotics) • EMEM 89% (ATCC, #30-2003) • FBS 10% (Hyclone, #SH30088.03) • 1% Non essential amino acids (Gibco, • 1 mM sodium pyruvate (Gibco, • Pen/Strep, 1% (Gibco, #15140-122) • 10 ng/mL insulin (Sigma, #10516) • 3. Complete Cell Culture Medium (with selection antibiotics) • EMEM 89% (ATCC, #30-2003) • F1% Non essential amino acids (Gibco, • 1 mM sodium pyruvate (Gibco, • BS 10% (Hyclone, #SH30088.03) • 10 ng/mL insulin (Sigma, #10516) • 400 ug/mL G418 sulfate (Agilent, #200049-21) • 4. Miscellaneous tissue culture equipment and reagents. • 5. White solid 384-well tissue culture plate (Greiner, Cat #781080) • 6. One Glo EX luciferase assay system (Promega, #E8150)
The following table tabulates the biological data disclosed for the current invention. The biological data was collected using the methodology described above. For each compound, TEAD-Luc EC50 values are listed in nanomolar (nM) concentration units.
On to `CNS(=O)(=O)c1ccc(Oc2ccc(C(F)(F)F)cn2)c(-c2cn3c(n2)CCC3)c1` [10-1, 3-(6,7-Dihydro-5H-pyrrolo[1,2-a]imidazol-2-yl)-N-methyl-4-((5-(trifluoromethyl)pyridin-2-yl)oxy)benzenesulfonamide], for which the EC50 (usually the concentration that produces a half-maximal response) was determined as 49.8 nM.
Same read-out and setting: for `CNS(=O)(=O)c1ccc(Oc2ccc(C(F)(F)F)cc2)c(-c2cccc3cc[nH]c23)c1` [2-7, 3-(1H-indol-7-yl)-N-methyl-4-[4-(trifluoromethyl)phenoxy]benzene-1-sulfonamide] the value was 5620 nM; for `CNS(=O)(=O)c1ccc(Oc2ccc(C(F)(F)F)cc2)c(-c2ccc3cccnc3c2)c1` [2-24, N-methyl-3-(quinolin-7-yl)-4-[4-(trifluoromethyl)phenoxy]benzene-1-sulfonamide], 273 nM.
Still for that read-out and setting: for `CNS(=O)(=O)c1ccc(Oc2ccc(CC(F)(F)F)cc2)c(-c2cnn3c2CCC3)c1` [3-6, 3-(5,6-dihydro-4H-pyrrolo[1,2-b]pyrazol-3-yl)-N-methyl-4-[4-(2,2,2-trifluoroethyl)phenoxy]benzene-1-sulfonamide] the value was 508 nM.
The same measure, in the same setting: the value for `CNS(=O)(=O)c1ccc(Oc2ccc(C(F)F)cc2)c(-c2cc3n(n2)CCC3)c1` [8-4, 4-[4-(difluoromethyl)phenoxy]-3-(5,6-dihydro-4H-pyrrolo[1,2-b]pyrazol-2-yl)-N-methylbenzene-1-sulfonamide] was 46.6 nM; that for `CNS(=O)(=O)c1ccc(Oc2ccc(C(F)(F)F)cc2)c(-c2ccnc3[nH]ccc23)c1` [2-9, N-methyl-3-(1H-pyrrolo[2,3-b]pyridin-4-yl)-4-[4-(trifluoromethyl)phenoxy]benzene-1-sulfonamide] was 2180 nM; that for `CNS(=O)(=O)c1ccc(Oc2ccc(C(F)(F)F)cc2)c(-c2cc3ccc(C)nc3cc2OC)c1` [2-21, 3-(7-methoxy-2-methylquinolin-6-yl)-N-methyl-4-[4-(trifluoromethyl)phenoxy]benzene-1-sulfonamide] was 9780 nM.
Consider `CNS(=O)(=O)c1ccc(Oc2cccc(C(F)(F)F)c2)c(-c2cn3c(n2)CCC3)c1` [4-15, 3-(6,7-dihydro-5H-pyrrolo[1,2-a]imidazol-2-yl)-N-methyl-4-[3-(trifluoromethyl)phenoxy]benzene-1-sulfonamide], for which the EC50 amounted to 22.3 nM.
With `CCNS(=O)(=O)c1ccc(Oc2ccc(C(F)(F)F)cc2)c(-c2cn3c(n2)CCC3)c1` [7-2, 3-(6,7-dihydro-5H-pyrrolo[1,2-a]imidazol-2-yl)-N-ethyl-4-[4-(trifluoromethyl)phenoxy]benzene-1-sulfonamide], the EC50 was 35.2 nM.
With `CNS(=O)(=O)c1ccc(Oc2ccc(C(F)(F)F)cc2)c(-c2cnc3ccc(N)cn23)c1` [1-24, 3-(6-aminoimidazo[1,2-a]pyridin-3-yl)-N-methyl-4-[4-(trifluoromethyl)phenoxy]benzene-1-sulfonamide], the concentration giving a half-maximal response (EC50) worked out at 5390 nM.
Same read-out and setting: for `CNS(=O)(=O)c1ccc(Oc2cccc(C(F)(F)F)c2)c(-c2cnn3c2OCC3)c1` [1-49, 3-(2,3-dihydropyrazolo[5,1-b]oxazol-7-yl)-N-methyl-4-(3-(trifluoromethyl)phenoxy)benzenesulfonamide] the value was 315 nM.
On to `CNS(=O)(=O)c1ccc(O[C@H]2CC[C@H](C(F)(F)F)CC2)c(-c2cn3c(n2)CCC3)c1` [4-1, 3-(6,7-Dihydro-5H-pyrrolo[1,2-a]imidazol-2-yl)-N-methyl-4-(((1r,4r)-4-(trifluoromethyl)cyclohexyl)oxy)benzenesulfonamide], for which the EC50 amounted to 52.6 nM.
The same measure, in the same setting: for `CNS(=O)(=O)c1ccc(Oc2ccc(C(F)(F)F)cc2)c(-c2cnn3c2OCC(C)C3)c1` (stereo not shown) [2-17, N-methyl-3-(6-methyl-6,7-dihydro-5H-pyrazolo[5,1-b][1,3]oxazin-3-yl)-4-[4-(trifluoromethyl)phenoxy]benzene-1-sulfonamide] the value was 590 nM.
As to `CNS(=O)(=O)c1ccc(Oc2ccc(C(F)(F)F)cc2)c(-c2ccc3nc(C)ccc3c2)c1` [2-31, N-methyl-3-(2-methylquinolin-6-yl)-4-[4-(trifluoromethyl)phenoxy]benzene-1-sulfonamide], the concentration for a half-maximal effect (EC50) is 663 nM.
Still for that read-out and setting: the value for `CNS(=O)(=O)c1ccc(Oc2ccc(C(F)(F)F)cc2)c(-c2cn3c(n2)COCC3)c1` [1-3, 3-(5,6-Dihydro-8H-imidazo[2,1-c] [1,4]oxazin-2-yl)-N-methyl-4-(4-(trifluoromethyl)phenoxy)benzenesulfonamide] was 36.2 nM; that for `CNS(=O)(=O)c1ccc(Oc2ccc(C(F)(F)F)cc2)c(-c2cnc3ncccn23)c1` [1-26, 3-(imidazo[1,2-a]pyrimidin-3-yl)-N-methyl-4-[4-(trifluoromethyl)phenoxy]benzene-1-sulfonamide] was 335 nM.
The same measure, in the same setting: for `CNS(=O)(=O)c1ccc(Oc2ccc(F)cc2)c(-c2cnn3c2OCC3)c1` [1-46, 3-(2,3-dihydropyrazolo[5,1-b]oxazol-7-yl)-4-(4-fluorophenoxy)-N-methylbenzenesulfonamide] the value was 1860 nM; for `CNS(=O)(=O)c1ccc(Oc2ccc(C(F)(F)F)cc2)c(-c2cn3c(n2)C(C)(O)CC3)c1` (stereo not shown) [9-2, 3-(7-Hydroxy-7-methyl-6,7-dihydro-5H-pyrrolo[1,2-a]imidazol-2-yl)-N-methyl-4-(4-(trifluoromethyl)phenoxy)benzenesulfonamide], 304 nM; for `CNS(=O)(=O)c1ccc(Oc2ccc(Cl)cc2)c(-c2cn3c(n2)CCC3)c1` [4-12, 4-(4-chlorophenoxy)-3-(6,7-dihydro-5H-pyrrolo[1,2-a]imidazol-2-yl)-N-methylbenzene-1-sulfonamide], 14.1 nM.
The same measure, in the same setting: the value for `CNS(=O)(=O)c1ccc(Oc2ccc(C(F)F)cc2)c(-c2cnn3c2OCC3)c1` [2-33, 4-[4-(difluoromethyl)phenoxy]-3-(2,3-dihydropyrazolo[5,1-b] [1,3]oxazol-7-yl)-N-methylbenzene-1-sulfonamide] was 356 nM; that for `CNc1ncc2cc(-c3cc(S(=O)(=O)NC)ccc3Oc3ccc(C(F)(F)F)cc3)ccc2n1` [2-25, N-methyl-3-[2-(methylamino)quinazolin-6-yl]-4-[4-(trifluoromethyl)phenoxy]benzene-1-sulfonamide] was 232 nM; that for `CNS(=O)(=O)c1ccc(Oc2ccc(C(F)(F)F)cc2)c(-c2ccc3c(cnn3C)c2)c1` [2-15, N-methyl-3-(1-methyl-1H-indazol-5-yl)-4-[4-(trifluoromethyl)phenoxy]benzene-1-sulfonamide] was 336 nM.
Turning to `CNS(=O)(=O)c1ccc(Oc2ccc(C(F)(F)F)cc2)c(-c2cn3cc(C)ccc3n2)c1` [1-34, N-methyl-3-(6-methylimidazo[1,2-a]pyridin-2-yl)-4-[4-(trifluoromethyl)phenoxy]benzene-1-sulfonamide], the 50% effective concentration (EC50) is 88.5 nM.

Staying with this experiment, now noted: TEAD Reporter-MCF7 cells, 24 hours incubation with compound, luciferase readout.
Consider `CNS(=O)(=O)c1ccc(Oc2ccc(C(F)(F)F)cc2)c(-c2cn3c(n2)C(C)CC3)c1` (single isomer, unassigned) [1-43, (R)- or (S)-N-methyl-3-(7-methyl-6,7-dihydro-5H-pyrrolo[1,2-a]imidazol-2-yl)-4-[4-(trifluoromethyl)phenoxy]benzene-1-sulfonamide], for which the EC50 was found to be 8.1 nM.
Still for that read-out and setting: for `CNS(=O)(=O)c1ccc(Oc2ccc(C(F)(F)F)cc2)c(-c2cn3c(n2)C(C)CC3)c1` (single isomer, unassigned) [1-44, (S)- or (R)-N-methyl-3-(7-methyl-6,7-dihydro-5H-pyrrolo[1,2-a]imidazol-2-yl)-4-[4-(trifluoromethyl)phenoxy]benzene-1-sulfonamide] the value was 33.6 nM.
